Measured values as given in publication PMC6980506, “Comparative pharmacokinetics and pharmacodynamics of the advanced Retinol-Binding Protein 4 antagonist in dog and cynomolgus monkey” (PLoS ONE, 2020).

Legend:
[1] = Metabolic stability in dog liver microsomes; type: in vitro ADME; details: male, beagle, pH 7.4, 1 mg/mL, read-out: Microsomal Stability (% Remaining at 30 min)
Method: All measurements were done in duplicate. Pooled mixed gender human donor microsomes, male beagle dog microsomes and male cynomolgus monkey were obtained from BioIVT (Baltimore, MD). […] A mixture containing 50 mM potassium phosphate buffer pH 7.4 and 1 mg/mL liver microsomes was pre-warmed for 10 min at 37°C in a shaking water bath, followed by the addition of test compound. Final DMSO concentration in the reaction mix was 0.1%. […] The final volume of the reaction mixture was 800 μL, containing 1 mg/mL liver microsomes, and 1 μM test compound. Aliquots (100 μL) of reaction mixtures were removed from the incubation plate at pre-defined timepoints and mixed with 150 μL of ice-cold acetonitrile, incubated on ice for 15 min, and samples were centrifuged (3,600 rpm, 10 min, 4°C) to precipitate protein. The supernatants were diluted 1:1 (v/v) with water containing the internal standard and subjected to the LC/MS analysis.

[2] = Plasma protein binding by equilibrium dialysis, dog plasma; type: in vitro ADME; details: pH 7.4, average and standard deviation, read-out: %PPB, plasma protein binding (converted)
Method: In vitro ADME tests were conducted at AMRI, Albany, NY.

serum RBP4 = tested on: serum RBP4; design: method as in PMID 29871924; details: mice; cited from earlier work
bisretinoid synthesis = tested on: bisretinoid synthesis; design: method as in PMID 29871924; details: Abca4-/- mouse model of Stargardt disease; cited from earlier work

## Cc1cc(C(=O)O)nc(N2C[C@H]3C[C@@H](c4ccccc4C(F)(F)F)C[C@H]3C2)n1 [BPN-14136]
[1]
  remaining at 0.5 h, 1 μM: 93%
[2]
  fraction unbound at 4 h, 1 μM: 0.003
Serum RBP4
  serum RBP4 lowering: 90%
Bisretinoid synthesis
  bisretinoid synthesis: significantly inhibited bisretinoid synthesis
